Assay [1] has as its system oxygen consumption in mitochondria of a rat's liver. Description: Oxygen consumption of rat liver mitochondria. The class given is biochemical. Here is the method:
2-oxoglutaran 2 mM, ADP 1 mM, mitochondria | protein 4 mg/m. […] The

Assay [2] concerns oxidizing phosphorylation in mitochondria of a rat's liver. In words: Oxidizing phosphorylation of rat liver mitochondria. The class given is biochemical. Here is the method: 2-oxoglutaran 2 mM, ADP 1 mM, mitochondria | protein 4 mg/m. […] The | oxidizing phosphorylation speed was determined by means of the measuremen | of hydrogen ion consumption. The calcium transmission to mitochondria was […]

In assay [3] the test system is calcium transmission in mitochondria of a rat's liver. In words: Calcium transmission to rat liver mitochondria. Conditions: for % of inhibition, calcium transmission: medium with CaCl 300 nmoles/ml. In kind it is biochemical. As to the method:
Sucrose 170mM, KCl 10 mM, MgCl2 […], K2 HPO 5 mM, EGTA 0.01 mM
2-oxoglutaran 2 mM, ADP 1 mM, mitochondria
protein 4 mg/m. Temperature 25° C.
of hydrogen ion consumption. The calcium transmission to mitochondria was
studied with two methods; in a continuous way with a Radiometer calcium
electrode type F2112 or with an isotopic method.
*The medium contained Ca Cl 300 nmoles/ml.

In assay [4] the test system is blood-glucose concentration. In words: Decrease in blood-glucose concentration in rats after oral dose (Table 1; ED30 rats Table 2). The class given is in vivo. Conditions: Rattus norvegicus, po; for inhibition in vivo at 0.5 mg/kg: p.os. 0.5 mg/kg; for inhibition in vivo at 1 mg/kg: p.os. 1 mg/kg; for inhibition in vivo at 5 mg/kg: p.os. 5 mg/kg; for inhibition in vivo at 10 mg/kg: p.os. 10 mg/kg; for inhibition in vivo at 20 mg/kg: p.os. 20 mg/kg; for inhibition in vivo at 2 mg/kg: p.os. 2 mg/kg; for inhibition in vivo at 50 mg/kg: p.os. 50 mg/kg. From the text: The hypoglycemic activity of N-{4-[2-(pyrazole-1-carbonamide)-ethyl]-benzenesulphonyl}-ureas prepared according to the present invention can be noticed after their oral administration to mice, rats, rabbits and people and when determining the glucose concentration in blood with a known enzymatic method using glucose oxidase.
The exemplary comparison of effective doses (ED30) and the effect of oral dose size of the compounds prepared according to the present invention with Glibornuride, which is distinguished by its high effectiveness and good tolerance when administered to people, on the glucose concentration in the blood of rats, is given in Table 1.

Each structure is given as a SMILES string. “And” between values parts separate entries of the source, which are not always exact repeats. Equal values may be shown once.

`COc1ccc(Cl)cc1C(=O)NCCc1ccc(S(=O)(=O)NC(=O)NC2CCCCC2)cc1` [Glibenclamide]: the “% of inhibition, oxygen consumption” value in assay [1] (concentration 0.01 n M) was 26%; in assay [1] (concentration 0.02 n M), 43%; in assay [1] (concentration 0.05 n M) it was 60% and 63%; in assay [1] (concentration 0.1 n M), 75%; in assay [1] (concentration 0.5 n M), 87%. Also, the inhibition constant Ki was determined as 30 µM in assay [1] (rat liver mitochondria), 22 µM in assay [2] (rat liver mitochondria) and 47 µM in assay [3] (rat liver mitochondria). Further, the “% of inhibition, oxidizing phosphorylation” value in assay [2] (concentration 0.01 n M) came to 29%; in assay [2] (concentration 0.02 n M) it was 48%; in assay [2] (concentration 0.05 n M), 60%; in assay [2] (concentration 0.1 n M), 80%; in assay [2] (concentration 0.5 n M), 100%. Besides, the “Calcium transmission / Oxide consumption (ratio of inhibition)” value in assay [3] (concentration 0.01 n M) came to 0.46; in assay [3] (concentration 0.02 n M) it was 0.65; in assay [3] (concentration 0.05 n M) it was 0.82; in assay [3] (concentration 0.1 n M), 0.90; in assay [3] (concentration 0.5 n M), 0.97. The “% of inhibition, calcium transmission” value in assay [3] (concentration 0.01 n M) came out at 12%; in assay [3] (concentration 0.02 n M), 28%; in assay [3] (concentration 0.05 n M) it was 52%; in assay [3] (concentration 0.1 n M), 68%; in assay [3] (concentration 0.5 n M), 85%. For the same compound, in assay [3] (rat liver mitochondria), the “preference of inhibition: calcium transmission versus oxidizing processes” value was “acts much stronger on oxidizing and phosphorylation processes than on the calcium transmission”. Also, the “Ki ratio SPC-5002 / Glibenclamide, calcium transmission” value in assay [3] (ratio of inhibitor constants) is given as 10.

In the case of `CCCCNC(=O)NS(=O)(=O)c1ccc(C)cc1` [Tolbutamide], the “% of inhibition, oxygen consumption” value in assay [1] (concentration 1.0 n M) was 14%. The “% of inhibition, oxidizing phosphorylation” value in assay [2] (concentration 1.0 n M) came to 7%. In addition, in assay [3] (concentration 1.0 n M), the “Calcium transmission / Oxide consumption (ratio of inhibition)” value worked out at 1.92 and the “% of inhibition, calcium transmission” value came out at 27%. Besides, the “preference of inhibition: calcium transmission versus oxidizing processes” value in assay [3] (rat liver mitochondria) is given as “preferential inhibiting of calcium transmission”.

In assay [4] (1 h), `CCCCNC(=O)NS(=O)(=O)c1ccc(CCNC(=O)n2ccc(C)n2)cc1` [compound 21] returned an inhibition in vivo at 0.5 mg/kg of 6%, an inhibition in vivo at 1 mg/kg of 23%, an inhibition in vivo at 5 mg/kg of 22% and an inhibition in vivo at 10 mg/kg of 55%. Further, the inhibition in vivo at 20 mg/kg in assay [4] (1 h) is 50%. Moreover, in assay [4] (3 h), the inhibition in vivo at 0.5 mg/kg turned out to be 22%, the inhibition in vivo at 1 mg/kg is 23%, the inhibition in vivo at 5 mg/kg was found to be 38% and at 10 mg/kg the inhibition in vivo was 53%. The same compound had an inhibition in vivo at 20 mg/kg in assay [4] (3 h) of 55%. Also, in assay [4] (6 h), the inhibition in vivo at 0.5 mg/kg was determined as 29%, the inhibition in vivo at 1 mg/kg was found to be 22%, the inhibition in vivo at 5 mg/kg is 43% and 10 mg/kg produced 56% inhibition in vivo. Further, the inhibition in vivo at 20 mg/kg in assay [4] (6 h) worked out at 56%.

Regarding `CCCNC(=O)NS(=O)(=O)c1ccc(CCNC(=O)n2ccc(C)n2)cc1` [compound 22], in assay [4] (1 h), the inhibition in vivo at 2 mg/kg is 4%, 5 mg/kg produced 15% inhibition in vivo, at 10 mg/kg the inhibition in vivo was 25% and the inhibition in vivo at 20 mg/kg worked out at 45%. The inhibition in vivo at 50 mg/kg in assay [4] (1 h) came out at 54%. Also, in assay [4] (3 h), the inhibition in vivo at 2 mg/kg is 26%, the inhibition in vivo at 5 mg/kg came out at 24%, the inhibition in vivo at 10 mg/kg was determined as 29% and the inhibition in vivo at 20 mg/kg was 56%. In assay [4] (3 h), this compound showed an inhibition in vivo at 50 mg/kg of 55%. In assay [4] (6 h), the inhibition in vivo at 2 mg/kg amounted to 23%, testing at 5 mg/kg gave an inhibition in vivo of 26%, the inhibition in vivo at 10 mg/kg stood at 35% and testing at 20 mg/kg gave an inhibition in vivo of 56%. Besides, in assay [4] (6 h), 50 mg/kg produced 48% inhibition in vivo.

Usually Ki stands for a measure of affinity in units of concentration, obtained from inhibition or displacement. As a reminder, the inhibition in vivo is the share of the control response that was lost under treatment. A low value points to little suppression.

The record behind these values is US4153710A, “N-(4-[2-(pyrazole-1-carbonamide)-ethyl]-benzenesulphonyl)-urea” (Starogardzkie Zaklady Farmaceutyczne POLFA, priority 1976, dated 1979).
